In patent publication US7875648B2, “N-(dibenz(b,f)oxepin-10-ylmethyl)-N-methyl-N-prop-2-ynylamine (omigapil) for the treatment of congenital muscular dystrophy or myopathy resulting from collagen VI deficiency” (Santhera Pharmaceuticals (Schweiz) AG, priority 2006, dated 2011):

Legend:
[1] = test system: glyceraldehyde-3-phosphate dehydrogenase (GAPDH); settings: reported in J. Biol. Chem. 273:5821-5828; cited from earlier work
[2] = test system: homozygous col6a1-/- mice (Col6a1-deficient mouse model), diaphragm muscle; experiment: Apoptotic (TUNEL-positive) nuclei in diaphragm muscle of col6a1-/- mice; format: in vivo; settings: 5 days
Text: (§1) Homozyguous col6a1−/− mutants lack triple-helical collagen VI resulting in a phenotype that resembles BM/UCMD in human patients with collagen VI deficiency. Specifically, col6a1−/− mice show histological features of myopathy such as fiber necrosis and phagocytosis and a pronounced variation in fiber diameter. Muscles also show signs of stimulated regeneration of fibers and necrotic fibers are particularly frequent in the diaphragm thereby resembling more the clinical picture of UCMD than BM (Bertini E., Pepe G. (2002) Collagen type VI and related disorders: Bethlem myopathy and Ullrich scleroatonic muscular dystrophy Europ. J. Paediatric Neurology 6:193-198). […] This mitochondrial dysfunction might be caused by slight increase in of sarcolemmal calcium influx followed by calcium overload eventually causing opening of the mitochondrial permeability transition pore (MPTP) and finally apoptosis.
The effect of N-(dibenz(b,f)oxepin-10-ylmethyl)-N-methyl-N-prop-2-ynylammonium maleate (omigapil) was tested on the number of apoptotic nuclei in muscle of a Col6a1-deficient mouse model. Starting at 16±4 weeks of age, homozygous col6a1−/− mice were treated with omigapil. For this, omigapil was dissolved in 1% w/v ethanol to a final concentration of 20 μg/ml. Mutant mice received a final dose of 1 mg/kg or 10 mg/kg omigapil given twice daily by gavage following the guidance as described elsewhere (Sagot Y. et al. (2000) An orally active anti-apoptotic molecule (CGP 3466B) preserves mitochondria and enhances survival in an animal model of motoneuron disease. Br. J. Pharmacol. 131:721-728). For comparison col6a1−/− mice received the equivalent amount of vehicle only. After five days of application mice were sacrificed, the diaphragm removed, sectioned and stained for apoptotic nuclei using TUNEL staining. The number of apoptotic nuclei per mm2 area in the diaphragm muscle was determined as described (Irwin W A et al. (2003) Mitochondrial dysfunction and apoptosis in myopathic mice with collagen VI deficiency. Nature Genetics 35:367-371).

[3] = test system: Col6a1-deficient mice, mitochondria in muscle fibers of the diaphragm muscle; experiment: Ultrastructural appearance of mitochondria in diaphragm muscle fibers of Col6a1-deficient mice; format: in vivo, mouse; settings: for percentage of myofibers with pathologically altered mitochondria vs vehicle-treated animals: Col6a1-deficient mice, diaphragm, FIG. 2
Text: as §1
The effect of N-(dibenz(b,f)oxepin-10-ylmethyl)-N-methyl-N-prop-2-ynylammonium maleate (omigapil) was tested on the effect to normalize ultrastructural defects in mitochondria of a Col6a1-deficient mouse model. For this, Col6a1-deficient mice were treated with omigapil as described in Example 1.
The ultrastructural appearance of mitochondria in muscle fibers of the diaphragm muscle was determined and quantified as described (Irwin W A et al. (2003) Mitochondrial dysfunction and apoptosis in myopathic mice with collagen VI deficiency. Nature Genetics 35:367-371).

| Compound | binding to glyceraldehyde-3-phosphate dehydrogenase (GAPDH) [1] | number of apoptotic nuclei in diaphragm muscle (TUNEL staining) vs vehicle-treated col6a1-/- mice ([2]; 1 mg/kg twice daily by gavage, N=3, FIG. 1) | number of apoptotic nuclei in diaphragm muscle (TUNEL staining) vs vehicle-treated col6a1-/- mice ([2]; 10 mg/kg twice daily by gavage, N=4, FIG. 1) | number of apoptotic nuclei in omigapil-treated animals relative to wild-type animal ([2]; omigapil-treated, diaphragm muscle) | ultrastructural appearance of mitochondria in muscle fibers of the diaphragm muscle ([3]; Col6a1-deficient mice treated as in Example 1) | percentage of myofibers with pathologically altered mitochondria vs vehicle-treated animals ([3]; 1 mg/kg (animals B1-B2)) | percentage of myofibers with pathologically altered mitochondria vs vehicle-treated animals ([3]; 10 mg/kg (animals A1-A3)) |
| --- | --- | --- | --- | --- | --- | --- | --- |
| C#CCN(C)CC1=Cc2ccccc2Oc2ccccc21 [compound of formula (I), N-(dibenz(b,f)oxepin-10-ylmethyl)-N-methyl-N-prop-2-ynylamine] | binds to glyceraldehyde-3-phosphate dehydrogenase (GAPDH) |  |  |  |  |  |  |
| N-(dibenz(b,f)oxepin-10-ylmethyl)-N-methyl-N-prop-2-ynylammonium maleate [omigapil] |  | significantly reduced | significantly reduced | comparable to the number seen in diaphragm muscle of a wild-type animal | normalized | clearly reduced | clearly reduced |
